Assay results as given in patent US20100278940A1, “Calcium supplements” (HL DISTRIBUTION COMPANY, priority 2005, published 2010).

What was measured:
[1] = test system: Human fetal osteoblast cells (hFOB 1.19); experiment: Mineralization/calcium deposition assay (Alizarin Red S); format: cell-based; conditions: 2 days treatment, without vitamin D3; mean±SEM
Description: (§1) These alterations in temperature were required because hFOB 1.19 cells were conditionally immortalized with a gene encoding a temperature-sensitive mutant (tsA58) of SV40 large T antigen.
(§2) AC was dissolved in HCl:H2O mixture at the ratio of 13:2. Calcium carbonate and calcium citrate were dissolved in distilled water. The stock solution of vitamin D3 was dissolved in ethyl alcohol as per the manufacturer's instructions and directly added in the medium to achieve its final concentration. […] The amount of calcium present in 0.5 mg of AC is 0.15 mg. […] Finally, the pH was maintained same in all the preparations.
(§3) Data were expressed as the mean±SEM of 3-6 independent experiments. Statistical comparisons of the results were made using one way analysis of variance (ANOVA). Significant differences (p≦0.05) between the means of control and test group were analyzed by the Neuman-Keuls multiple comparison test.

[2] = test system: Human fetal osteoblast cells (hFOB 1.19); experiment: Alkaline phosphatase (ALP) activity in osteoblast cells; format: cell-based; conditions: 4 days; AC 0.5 mg/ml, 0.15 mg/ml calcium from carbonate or citrate; mean±SEM
Description: as §1, §2, §3

[3] = test system: Human fetal osteoblast cells (hFOB 1.19); experiment: DNA synthesis assay ([3H] thymidine incorporation); format: cell-based; conditions: 4 days treatment, without vitamin D3; mean±SEM
Description: as §1, §2, §3

[4] = test system: osteoblastic hFOB 1.19 cells; experiment: MDA assay (H2O2-induced oxidative stress, lipid peroxidation); format: cell-based, human; conditions: 24 h
Description: as §1, §2
After 24 h of treatment with compounds in the presence and absence of H2O2 (0.3 mM), the cells were washed with cold PBS, scraped, and homogenized in lysis buffer. […] of cell lysate was used for measuring the MDA levels by following the manufacturer's instructions. […] In this study, MDA standard was used to construct a standard curve.
as §3

[5] = test system: Human fetal osteoblast cells (hFOB 1.19); experiment: Immunocytochemistry for proliferating cell nuclear antigen (PCNA) expression; format: cell-based; conditions: 4 days treatment, without vitamin D3
Description: Human fetal osteoblast cells (hFOB 1.19-ATCC number: CRL-11372) were seeded at a density of 10,000 cells cm^−2 in a mixture of Dulbecco's modified eagle medium (DMEM) and Ham F12 medium (1:1 ratio) supplemented with 10% fetal bovine serum (FBS) and 0.3 mg/ml […]. Osteoblast cells were cultured in a humidified atmosphere of 5% CO2 at 33.5° C. for cell attachment and proliferation and at 39.5° C. for other assays. These alterations in temperature were required because hFOB 1.19 cells were conditionally immortalized with a gene encoding a temperature-sensitive mutant (tsA58) of SV40 large T antigen.
AC was dissolved in HCl:H2O mixture at the ratio of 13:2. Calcium carbonate and calcium citrate were dissolved in distilled water. The stock solution of vitamin D3 was dissolved in ethyl alcohol as per the manufacturer's instructions and directly added in the medium to achieve its final concentration. […] The same dose was used for further experiments in the present study. The amount of calcium present in 0.5 mg of AC is 0.15 mg. […] Finally, the pH was maintained same in all the preparations.
To evaluate proliferative activity, immunohistochemistry for PCNA was performed after 4 days treatment of AC, calcium carbonate and calcium citrate. The experiment was done by following the instructions of PCNA staining kit (Invitrogen). […]

[6] = in presence of 0.3 mM H2O2, mean±SEM

| SMILES | calcium deposition (mineralization) [1] [OD at 561 nm] | ALP activity [2] [nmol/mg protein] | [3H] thymidine incorporation counts (DNA synthesis) [3] [cpm] | MDA levels [4, 6] [µM] | expression of PCNA [5] | MDA levels ([4]; 0.3 mM H2O2 alone, control 0.6768±0.084) [µM] |
| --- | --- | --- | --- | --- | --- | --- |
| O=C([O-])[O-].[Ca+2] [calcium carbonate, Calcium carbonate] | 0.1810±0.0115 | 372.2±15.7 | 62.8±11.6 | 1.263 ± 0.062 | – | – |
| O=C([O-])CC(O)(CC(=O)[O-])C(=O)[O-].O=C([O-])CC(O)(CC(=O)[O-])C(=O)[O-].[Ca+2].[Ca+2].[Ca+2] [calcium citrate] | 0.1267±0.0054 | 302.1±47.8 | 45±9.9 | 1.289 ± 0.109 | considerably higher than the control and calcium carbonate-treated cells | – |
| OO [Example H2O2, H2O2] | – | – | – | – | – | 1.992 ± 0.116 |
